Read-outs that look alike come from different tables or passages of the source.
Legend:
[1] = test system: T. cruzi trypomastigotes Dm28c-Luc; test: Trypanocidal activity against trypomastigotes, Dm28c-Luc clone (luciferase); type: cell-based, Trypanosoma cruzi; details: 24 h, mean ± SD of three experiments; for IC50: read-out: Trypanocidal Effect Trypomastigotes Dm28c-Luc IC50; for IC90: read-out: Trypanocidal Effect Trypomastigotes Dm28c-Luc IC90
Protocol: (§1) T. cruzi Dm28c-Luc clone, genetically modified to express firefly luciferase, and Y strain were used in the drug screening assay. Vero cells were infected with T. cruzi, Dm28c-Luc or Y strain, in a 10:1 parasites/host cell ratio and maintained at 37 °C in humidified atmosphere of 5% CO2. Trypomastigotes were harvested from the infected culture supernatant on the 4th day post-infection (dpi) followed by quantification of the number of parasites/mL in Neubauer chamber.
(§2) Screening of the compounds was performed against trypomastigotes and intracellular amastigote forms. Trypomastigotes (1 × 10^6 parasites/well), Dm28c-Luc clone and Y strain, were incubated for 24 h at 37 °C with the 1,4 naphthoquinone derivatives and Bz (0.41–100 μM) and their viability determined by the activity of the luciferase enzyme, after addition of luciferin substrate (300 μg/mL), or CellTiter Glo. The luminescent signal was detected on the FlexStation 3 reader.

[2] = test system: T. cruzi trypomastigotes Y strain; test: Trypanocidal activity against trypomastigotes, Y strain (CellTiter Glo); type: cell-based; details: Trypanosoma cruzi, 24 h
Protocol: as §1, §2

[3] = Cytotoxicity in vitro assay (CellTiter Glo, ATP level); type: cell-based; details: African green monkey, Vero cells
Protocol: The cultures were maintained at 37 °C in humidified atmosphere of 5% CO2.
To evaluate the toxic effects of the 1,4-naphthoquinone derivatives on mammalian cells, Vero cells were seeded at a density of 1.5 × 10^4 cells/well in 96-well white culture plates. Twenty-four hours later, the cell cultures were incubated for 72 h at 37 °C with 1,4-naphthoquinone derivatives (series 1(a–i) and 2(a–j)) and Bz (500–1.9 µM) diluted in RPMI medium supplemented with 10% FBS. After incubation, the cell viability, measured by ATP level, was assessed by adding 20 µL/well of the CellTiter Glo (Promega Corporation, Madison, WI, EUA) solution. The luminescent signal was read on the FlexStation 3 reader (Molecular Devices, Sunnyvale, CA, USA). […] All treatments and controls were performed at low concentration (≤1%) of dimethyl sulfoxide (DMSO). At least three independent assays were performed in duplicate.

[4] = test system: intracellular amastigotes of T. cruzi (Dm28c-Luc clone); test: Luminescent screening against intracellular amastigotes in infected Vero cells; type: cell-based, Trypanosoma cruzi; details: infected Vero cells treated for 72 h, mean ± SD of three experiments
Protocol: as §1
The effect of the compounds against intracellular amastigotes was screened in 72 h T. cruzi-infected Vero cells. Briefly, Vero cells seeded (1.5 × 10^4 cells/well) on 96-well white plate infected with trypomastigotes (Dm28c-Luc) at a 10:1 multiplicity of parasites/cell. After 24 h of infection, the cultures were washed with PBS and then, treated for 72 h at 37 °C with naphthoquinone derivatives and Bz (0.41–100 µM). After treatment, luciferin (300 µg/mL) was added to the culture and the viability of the parasites was assessed by reading the luminescent signal using the FlexStation 3 reader. Controls were also performed in no-toxic concentrations of DMSO (≤1%).

[5] = Mouse acute toxicity (NOAEL); type: in vivo
Protocol: Treated animals were separated into two groups: (1) 5 consecutive doses of 50 mg/kg and (2) 100 mg/kg every 1h, totaling a cumulative dose of 250 mg/kg and 500 mg/kg, respectively. Untreated and vehicle treated animals (PBS with 3% Tween-80) were used as control groups. Mice were inspected for toxic and sub-toxic symptoms according to Organization for Economic Co-operation and Development (OECD) guidelines [46].

T. cruzi Y strain = test: Murine model of T. cruzi acute infection; type: in vivo, Trypanosoma cruzi
Protocol: Male Swiss Webster mice (18 g) were obtained from the Institute of Science and Technology in Bio-models of the Oswaldo Cruz Foundation, Rio de Janeiro, Brazil. […] The animals received water and an ad libitum feeding regimen. Mice were intraperitoneally (i.p.) infected with bloodstream trypomastigotes of T. cruzi Y strain (10^4 parasites/animal) and parasitemia was daily evaluated from the 4th dpi. […] Daily treatment (0.1 mL i.p. dose) started at 5 days post-infection (dpi) with positive parasitemia and followed up to 10 dpi.
Parasitemia was estimated by Pizzy-Brener method [47]. Briefly, animals parasitemia were determined by microscopic quantification of fresh blood (5 µL) collected from animals’ caudal vein. Mortality was daily evaluated up to 26 days and expressed in survival rates.

T. cruzi = test system: T. cruzi; design: method as in PMID 18788881; details: C3H/HeN female infected mice, cited from earlier work
[6] = trypomastigotes, mean ± SD of three experiments, read-out: Trypanocidal Effect Trypomastigotes Y Strain IC50
[7] = trypomastigotes, mean ± SD of three experiments, read-out: Trypanocidal Effect Trypomastigotes Y Strain IC90
[8] = Table 1, mean ± SD, read-out: Vero Cells Toxicity CC50
[9] = read-out: Trypanocidal Effect Trypomastigotes Y Strain IC50, trypomastigotes, 24 h, mean ± SD of three experiments
[10] = read-out: Trypanocidal Effect Trypomastigotes Y Strain IC90, trypomastigotes, 24 h, mean ± SD of three experiments

Row | Compound | IC50 ([1]; Trypanosoma cruzi) | IC90 ([1]; Trypanosoma cruzi) | IC50 [2, 6] | IC90 [2, 7] | CC50 at 72 h [3, 8] | CC50 at 72 h ([3]; Table 2, read-out: CC50 Vero) | IC50 ([4]; Trypanosoma cruzi, Vero, 72 h) | IC90 ([4]; Trypanosoma cruzi) | melting point | IC50 [4] | further results
1 | O=C1C(O)=C(C(Sc2ccc(Cl)cc2Cl)c2ccccc2)C(=O)c2ccccc21 (stereo not shown) [Compound 1d, 2-(((2,4-dichlorophenyl)thio)(phenyl)methyl)-3-hydroxynaphthalene-1,4-dione] | 9.3 ± 1.1 µM | 23.3 ± 2.1 µM | 2.8 ± 0.6 µM | 5.8 ± 1.1 µM | 82.1 ± 5.1 µM | 82.1 ± 5.1 µM | 13.5 ± 2.1 µM | 31.1 ± 3.1 µM | 144 to 145 °C | – | –
2 | COc1ccc(C(Sc2ccc(F)cc2)C2=C(O)C(=O)c3ccccc3C2=O)cc1 (stereo not shown) [Compound 2e, 2-(((4-fluorophenyl)thio)(4-methoxyphenyl)methyl)-3-hydroxynaphthalene-1,4-dione] | 24.4 ± 4.4 µM | 31.4 ± 4.4 µM | 20.3 ± 4.1 µM | 32.3 ± 5.1 µM | 47.7 ± 3.2 µM | 47.7 ± 3.2 µM | ≤ 6.9 µM | 19.7 ± 3.2 µM | 132 to 134 °C | 6.8 ± 1.5 µM | –
3 | O=C1C(O)=C(C(Sc2ccc(Cl)cc2)c2ccc(Cl)cc2)C(=O)c2ccccc21 (stereo not shown) [Compound 1a, 2-((4-chlorophenyl)((4-chlorophenyl)thio)methyl)-3-hydroxynaphthalene-1,4-dione] | 8.9 ± 0.6 µM | 25.1 ± 1.6 µM | 3.1 ± 0.6 µM | 5.8 ± 0.9 µM | 43.6 ± 2.3 µM | 43.6 ± 2.3 µM | ≤ 6.9 µM | 12.1 ± 1.3 µM | 135 to 136 °C | 6.2 ± 0.9 µM | –
4 | O=C1C(O)=C(C(Sc2ccc(Cl)cc2)c2ccccc2Cl)C(=O)c2ccccc21 (stereo not shown) [Compound 1c, 2-((2-chlorophenyl)((4-chlorophenyl)thio)methyl)-3-hydroxynaphthalene-1,4-dione] | 8.6 ± 1.4 µM | 29.6 ± 5.4 µM | 4.3 ± 3.2 µM | 7.3 ± 2.2 µM | 44.1 ± 2.3 µM | 44.1 ± 2.3 µM | 9.3 ± 0.8 µM | 23.1 ± 3.3 µM | 183 to 184 °C | – | –
5 | COc1ccc(C(Sc2ccccc2C)C2=C(O)C(=O)c3ccccc3C2=O)cc1 (stereo not shown) [Compound 2b, 2-Hydroxy-3-((4-methoxyphenyl)(o-tolylthio)methyl) naphthalene-1,4-dione] | 25.9 ± 2.2 µM | 31.8 ± 0.9 µM | 27.9 ± 4.1 µM | 37.9 ± 6.1 µM | 44.4 ± 3.4 µM | 44.4 ± 3.4 µM | ~12 µM | 27.4 ± 2.4 µM | 54 to 55 °C | 11.3 ± 1.1 µM | –
6 | O=C1C(O)=C(C(Sc2ccc(Cl)cc2)c2cn(-c3cc(Cl)cc(Cl)c3)nn2)C(=O)c2ccccc21 (stereo not shown) [Compound 1e, 2-(((4-chlorophenyl)thio)(1-(3,5-dichlorophenyl)-1H-1,2,3-triazol-4-yl)methyl)-3-hydroxynaphthalene-1,4-dione] | ~4.5 µM | 16.5 ± 2.8 µM | 4.7 ± 1.9 µM | 5.5 ± 0.9 µM | 34.1 ± 2.9 µM | 34.1 ± 7.5 µM | 9.1 ± 0.7 µM | 27.9 ± 3.9 µM | 142 to 143 °C | – | IC50 [2, 9]: ~4.5 µM
7 | COc1ccc(C(Sc2ccc(Cl)cc2)C2=C(O)C(=O)c3ccccc3C2=O)cc1 (stereo not shown) [Compound 1g, 2-(((4-chlorophenyl)thio)(4-methoxyphenyl)methyl)-3-hydroxynaphthalene-1,4-dione] | 8.1 ± 0.6 µM | ≤ 19.3 µM | 10.2 ± 0.5 µM | 16.8 ± 2.5 µM | 99.9 ± 12.5 µM | 99.5 ± 12.5 µM | ≤ 6.9 µM | 11.4 ± 2.1 µM | – | 6.7 ± 1.8 µM | IC90 [1]: 19.3 ± 3.4 µM; IC90 [2, 10]: ≤ 19.3 µM; death in acute toxicity assessment ([5]; intraperitoneal, cumulative dose of 500 mg/kg (5 x 100 mg/kg), n = 2): one animal died; changes in mouse behavioral characteristics ([5]; oral and i.p. cumulative doses, acute toxicity assessment): not observed; toxic side effects according to the OECD guidelines ([5]; oral and i.p., five doses of 50 mg/kg 1 h apart, total cumulative dose 250 mg/kg, up to 48 h post-treatment): No toxic side effects; parasitemia / parasitic load (T. cruzi Y strain; Swiss Webster male mice, 10^4 Y strain trypomastigotes, i.p. treatment 5 consecutive days from 5 dpi, C2 50 and 100 mg/kg/day, 1g 50 mg/kg/day): not efficient in eliminating the parasites; prevention of mortality / survival (T. cruzi Y strain; Swiss Webster male mice, Y strain, i.p. treatment from 5 dpi, C2 50 and 100 mg/kg/day, 1g 50 mg/kg/day): not able to prevent mortality
8 | COc1ccc(C(Sc2ccc3ccccc3c2)C2=C(O)C(=O)c3ccccc3C2=O)cc1 (stereo not shown) [Compound 2h, 2-Hydroxy-3-((4-methoxyphenyl)(naphthalen-2-ylthio)methyl) naphthalene-1,4-dione] | 21.7 ± 4.7 µM | 39.7 ± 5.7 µM | 24.5 ± 3.6 µM | 34.5 ± 4.6 µM | 63.4 ± 7.1 µM | 63.4 ± 7.1 µM | 22.4 ± 2.2 µM | 31.5 ± 6.1 µM | 56 to 57 °C | – | –
9 | COc1ccc(C(Sc2ccc(SC)cc2)C2=C(O)C(=O)c3ccccc3C2=O)cc1 (stereo not shown) [Compound 2j, 2-hydroxy-3-((4-methoxyphenyl)((4-(methylthio)phenyl)thio)methyl)naphthalene-1,4-dione] | 52.7 ± 12.6 µM | > 100 µM | 89.6 ± 5.4 µM | > 100 µM | 93.5 ± 6.6 µM | 93.5 ± 6.6 µM | 60.2 ± 9.8 µM | > 100 µM | – | – | –
10 | O=C(Cn1ccnc1[N+](=O)[O-])NCc1ccccc1 [Bz, benznidazole, reference compound] | 17.5 ± 3.3 µM | > 100 µM | – | – | > 500 µM | > 500 µM | – | 7.9 ± 1.2 µM | – | – | IC50 [2, 9]: 14.3 ± 3.2 µM; IC90 [2, 10]: > 100 µM; IC50 ([4]; Trypanosoma cruzi): 1.4 ± 0.4 µM; parasitemia by microscopic analysis (T. cruzi Y strain; infected mice treated orally with Bz 100 mg/kg/day): undetectable parasitemia; survival (T. cruzi Y strain; infected mice treated orally with Bz 100 mg/kg/day, 26 days): survived during all period analyzed
11 | O=C1C(c2ccccc2)=C(c2ccccc2)C(=O)c2ccccc21 [DPNQ, 2,3-diphenyl-1,4-naphthoquinone] | – | – | – | – | – | – | – | – | – | – | animal survival (T. cruzi; up to 70 dpi): 60%; parasite load (T. cruzi): reduced two-fold the parasite load
12 | COc1ccc(C(Sc2cccc(C)c2)C2=C(O)C(=O)c3ccccc3C2=O)cc1 (stereo not shown) [Compound 2c, 2-Hydroxy-3-((4-methoxyphenyl)(m-tolylthio)methyl)naphthalene-1,4-dione] | 52.3 ± 6.4 µM | 84.6 ± 11.4 µM | 26.2 ± 4.8 µM | 32.8 ± 5.1 µM | 48.9 ± 4.7 µM | 48.9 ± 4.7 µM | ~12 µM | 30.9 ± 4.7 µM | – | 12.6 ± 2.4 µM | –

Source: article PMC7829778, “Optimization of 1,4-Naphthoquinone Hit Compound: A Computational, Phenotypic, and In Vivo Screening against Trypanosoma cruzi” (Molecules, 2021)
